How the values were obtained:
JAK3 = target: T1, JAK3 (Homo sapiens, UniProt P52333); experiment: Caliper mobility shift kinase assay, JAK3; type: biochemical; details: 1 mM ATP concentration
T1 sequence (P52333 1-1124): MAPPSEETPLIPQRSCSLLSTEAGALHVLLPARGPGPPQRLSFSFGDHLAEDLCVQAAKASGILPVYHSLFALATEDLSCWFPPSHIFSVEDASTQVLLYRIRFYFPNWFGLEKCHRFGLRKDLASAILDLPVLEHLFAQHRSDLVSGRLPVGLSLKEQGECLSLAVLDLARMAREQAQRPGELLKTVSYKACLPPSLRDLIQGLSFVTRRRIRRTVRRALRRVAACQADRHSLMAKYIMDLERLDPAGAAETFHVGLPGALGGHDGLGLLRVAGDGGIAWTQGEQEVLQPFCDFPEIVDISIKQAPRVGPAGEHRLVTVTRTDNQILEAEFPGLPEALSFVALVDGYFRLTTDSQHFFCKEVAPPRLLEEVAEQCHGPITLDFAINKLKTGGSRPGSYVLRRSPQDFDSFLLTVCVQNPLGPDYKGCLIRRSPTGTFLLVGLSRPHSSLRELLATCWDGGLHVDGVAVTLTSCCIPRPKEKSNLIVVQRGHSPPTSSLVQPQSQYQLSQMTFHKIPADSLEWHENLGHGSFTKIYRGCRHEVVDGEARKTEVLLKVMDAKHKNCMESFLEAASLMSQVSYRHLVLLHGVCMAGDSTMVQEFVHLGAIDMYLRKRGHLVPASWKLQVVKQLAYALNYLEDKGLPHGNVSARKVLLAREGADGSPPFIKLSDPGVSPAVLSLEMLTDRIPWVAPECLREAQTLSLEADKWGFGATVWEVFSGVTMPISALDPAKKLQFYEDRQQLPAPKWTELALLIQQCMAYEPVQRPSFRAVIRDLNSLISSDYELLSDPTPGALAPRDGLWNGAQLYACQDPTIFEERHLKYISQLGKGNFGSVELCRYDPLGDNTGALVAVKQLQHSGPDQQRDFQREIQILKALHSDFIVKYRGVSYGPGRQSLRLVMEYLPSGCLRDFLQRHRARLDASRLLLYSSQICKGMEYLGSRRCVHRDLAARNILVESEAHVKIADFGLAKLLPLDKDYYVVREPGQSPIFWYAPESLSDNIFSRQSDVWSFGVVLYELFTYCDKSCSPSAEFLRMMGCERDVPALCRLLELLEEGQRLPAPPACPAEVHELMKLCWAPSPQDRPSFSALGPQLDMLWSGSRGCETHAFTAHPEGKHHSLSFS
Protocol: (§1) The in vitro inhibitory effect of compounds on JAK1, JAK2, JAK3 or TYK2 kinase was detected by Caliper mobility shift assay. Compounds to be tested were dissolved in DMSO, and prepared into 10 mM stock solutions. Stock solutions of the compounds were prepared into 50× working solutions (10 concentrations in total) through gradient dilution using DMSO, and each concentration of working solution was transferred to an Echo® master plate. The Echo® non-contact nanoliter sonic pipetting system was used to transfer […] of compound solution or DMSO of the corresponding concentration from the master plate to the 384-well reaction plate. Then, 10 μL of 2.5× kinase solution was added to the 384-well reaction plate. After 10 minutes of incubation at room temperature, 10 μL of mixed solution of 2.5×FAM-labeled polypeptide and ATP (final ATP concentration was 1 mM) was added. 30 μL of stop reagent was added, detected on Caliper, and the conversion value was calculated, i.e. the height of the product peak divided by the sum of the heights of the substrate and product peaks. […] Percent inhibition=(max−conversion)/(max−min)×100, wherein “max” represents the conversion reading for the DMSO control and “min” represents the conversion reading for the low value control.

Ba/F3-TEL-JAK3 cells = experiment: CellTiter-Glo proliferation of Ba/F3-TEL-JAK3 cells; type: cell-based; details: Mus musculus, murine B lymphocyte BaF3 with TEL-human JAK3 kinase domain
Description: (§2) In murine B lymphocytes BaF3, recombinant genes (including TEL and human JAK1, TYK2, JAK2, JAK3 kinase domains) were transferred by using genetic engineering technology, in which TEL could promote phosphorylation of TEL-JAK1 or TEL-TYK2 kinase dimer and continuously activate, thus allowing cells to grow dependent on the activity of this recombinant kinase. […] CellTiter-Glo method was used to detect the proliferation of genetically engineered cell lines Ba/F3-TEL-JAK1, Ba/F3-TEL-TYK2, Ba/F3-TEL-JAK2, and Ba/F3-TEL-JAK3 which was cultured in vitro. Graphpad 7.0 was used to fit curves and IC 50 values were calculated.

TYK2 = TYK2 (Homo sapiens, UniProt P29597); experiment: Caliper mobility shift kinase assay, TYK2; type: biochemical; details: 1 mM ATP concentration
Protocol: as §1

JAK1 = JAK1 (Homo sapiens, UniProt P23458); experiment: Caliper mobility shift kinase assay, JAK1; type: biochemical; details: 1 mM ATP concentration
Protocol: as §1

Ba/F3-TEL-TYK2 cells = experiment: CellTiter-Glo proliferation of Ba/F3-TEL-TYK2 cells; type: cell-based; details: Mus musculus, murine B lymphocyte BaF3 with TEL-human TYK2 kinase domain
Description: as §2

Ba/F3-TEL-JAK1 cells = experiment: CellTiter-Glo proliferation of Ba/F3-TEL-JAK1 cells; type: cell-based; details: Mus musculus, murine B lymphocyte BaF3 with TEL-human JAK1 kinase domain
Description: as §2

JAK2 = JAK2 (Homo sapiens, UniProt O60674); experiment: Caliper mobility shift kinase assay, JAK2; type: biochemical; details: 1 mM ATP concentration
Protocol: as §1

Ba/F3-TEL-JAK2 cells = experiment: CellTiter-Glo proliferation of Ba/F3-TEL-JAK2 cells; type: cell-based; details: Mus musculus, murine B lymphocyte BaF3 with TEL-human JAK2 kinase domain
Description: as §2

Chain of TYK2 (P29597 whole entry): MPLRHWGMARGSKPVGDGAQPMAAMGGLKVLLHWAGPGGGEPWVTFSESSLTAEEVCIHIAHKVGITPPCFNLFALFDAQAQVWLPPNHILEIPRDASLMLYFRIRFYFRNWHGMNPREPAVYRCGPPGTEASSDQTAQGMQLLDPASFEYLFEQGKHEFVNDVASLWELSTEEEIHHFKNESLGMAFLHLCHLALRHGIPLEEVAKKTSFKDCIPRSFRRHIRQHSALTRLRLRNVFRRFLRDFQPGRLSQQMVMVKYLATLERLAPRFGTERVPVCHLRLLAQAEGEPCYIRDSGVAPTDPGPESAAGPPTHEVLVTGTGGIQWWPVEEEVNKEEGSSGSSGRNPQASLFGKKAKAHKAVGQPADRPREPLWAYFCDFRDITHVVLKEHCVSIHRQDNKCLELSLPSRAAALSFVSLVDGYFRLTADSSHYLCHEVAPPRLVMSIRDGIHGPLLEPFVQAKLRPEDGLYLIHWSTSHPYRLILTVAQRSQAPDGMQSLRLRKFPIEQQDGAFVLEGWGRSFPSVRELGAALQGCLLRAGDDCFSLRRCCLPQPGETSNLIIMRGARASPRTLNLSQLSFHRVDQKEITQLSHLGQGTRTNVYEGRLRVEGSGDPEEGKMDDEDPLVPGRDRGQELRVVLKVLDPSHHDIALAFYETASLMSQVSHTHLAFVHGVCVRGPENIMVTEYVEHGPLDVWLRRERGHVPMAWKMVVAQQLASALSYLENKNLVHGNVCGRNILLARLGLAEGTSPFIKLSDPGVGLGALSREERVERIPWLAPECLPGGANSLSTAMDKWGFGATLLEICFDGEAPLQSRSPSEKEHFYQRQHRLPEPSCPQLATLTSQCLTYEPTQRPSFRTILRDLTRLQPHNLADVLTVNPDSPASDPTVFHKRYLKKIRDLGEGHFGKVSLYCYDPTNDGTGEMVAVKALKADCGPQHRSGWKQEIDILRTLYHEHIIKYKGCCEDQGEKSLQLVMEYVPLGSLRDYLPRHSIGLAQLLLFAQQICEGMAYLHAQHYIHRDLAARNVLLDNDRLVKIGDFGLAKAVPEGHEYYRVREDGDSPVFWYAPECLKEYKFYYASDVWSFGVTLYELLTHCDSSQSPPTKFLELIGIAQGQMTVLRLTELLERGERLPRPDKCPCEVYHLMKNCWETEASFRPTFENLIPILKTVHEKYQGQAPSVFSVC
Chain of JAK1 (P23458 whole entry): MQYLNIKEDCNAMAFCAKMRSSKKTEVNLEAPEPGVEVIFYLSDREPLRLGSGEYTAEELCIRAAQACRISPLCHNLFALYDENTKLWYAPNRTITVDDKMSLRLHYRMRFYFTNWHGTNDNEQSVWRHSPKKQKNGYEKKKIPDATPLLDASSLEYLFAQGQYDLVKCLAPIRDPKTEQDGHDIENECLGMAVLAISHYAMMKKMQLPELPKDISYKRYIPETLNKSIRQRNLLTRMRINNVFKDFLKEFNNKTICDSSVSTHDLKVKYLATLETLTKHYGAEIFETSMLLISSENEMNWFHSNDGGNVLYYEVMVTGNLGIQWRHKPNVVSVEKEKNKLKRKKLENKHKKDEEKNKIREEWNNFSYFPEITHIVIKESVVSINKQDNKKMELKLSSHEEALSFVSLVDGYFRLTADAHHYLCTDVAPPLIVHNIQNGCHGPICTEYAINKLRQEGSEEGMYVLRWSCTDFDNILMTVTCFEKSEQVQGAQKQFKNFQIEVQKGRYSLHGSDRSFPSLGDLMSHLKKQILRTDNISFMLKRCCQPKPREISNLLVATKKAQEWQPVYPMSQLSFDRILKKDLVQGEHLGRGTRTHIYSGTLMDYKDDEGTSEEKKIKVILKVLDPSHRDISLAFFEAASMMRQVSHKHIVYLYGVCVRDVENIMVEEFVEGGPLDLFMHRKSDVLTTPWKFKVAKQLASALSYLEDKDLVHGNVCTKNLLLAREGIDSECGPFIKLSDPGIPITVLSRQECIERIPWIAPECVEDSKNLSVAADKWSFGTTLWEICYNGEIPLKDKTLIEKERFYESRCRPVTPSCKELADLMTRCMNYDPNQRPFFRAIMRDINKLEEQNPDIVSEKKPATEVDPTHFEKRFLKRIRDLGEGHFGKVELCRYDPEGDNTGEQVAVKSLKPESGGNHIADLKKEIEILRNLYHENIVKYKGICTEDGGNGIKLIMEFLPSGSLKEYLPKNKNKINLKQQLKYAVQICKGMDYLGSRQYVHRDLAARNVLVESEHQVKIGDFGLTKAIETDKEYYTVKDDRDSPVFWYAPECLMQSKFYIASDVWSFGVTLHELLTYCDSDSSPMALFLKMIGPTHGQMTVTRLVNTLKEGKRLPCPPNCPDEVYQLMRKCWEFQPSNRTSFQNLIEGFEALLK
Chain of JAK2 (O60674 whole entry): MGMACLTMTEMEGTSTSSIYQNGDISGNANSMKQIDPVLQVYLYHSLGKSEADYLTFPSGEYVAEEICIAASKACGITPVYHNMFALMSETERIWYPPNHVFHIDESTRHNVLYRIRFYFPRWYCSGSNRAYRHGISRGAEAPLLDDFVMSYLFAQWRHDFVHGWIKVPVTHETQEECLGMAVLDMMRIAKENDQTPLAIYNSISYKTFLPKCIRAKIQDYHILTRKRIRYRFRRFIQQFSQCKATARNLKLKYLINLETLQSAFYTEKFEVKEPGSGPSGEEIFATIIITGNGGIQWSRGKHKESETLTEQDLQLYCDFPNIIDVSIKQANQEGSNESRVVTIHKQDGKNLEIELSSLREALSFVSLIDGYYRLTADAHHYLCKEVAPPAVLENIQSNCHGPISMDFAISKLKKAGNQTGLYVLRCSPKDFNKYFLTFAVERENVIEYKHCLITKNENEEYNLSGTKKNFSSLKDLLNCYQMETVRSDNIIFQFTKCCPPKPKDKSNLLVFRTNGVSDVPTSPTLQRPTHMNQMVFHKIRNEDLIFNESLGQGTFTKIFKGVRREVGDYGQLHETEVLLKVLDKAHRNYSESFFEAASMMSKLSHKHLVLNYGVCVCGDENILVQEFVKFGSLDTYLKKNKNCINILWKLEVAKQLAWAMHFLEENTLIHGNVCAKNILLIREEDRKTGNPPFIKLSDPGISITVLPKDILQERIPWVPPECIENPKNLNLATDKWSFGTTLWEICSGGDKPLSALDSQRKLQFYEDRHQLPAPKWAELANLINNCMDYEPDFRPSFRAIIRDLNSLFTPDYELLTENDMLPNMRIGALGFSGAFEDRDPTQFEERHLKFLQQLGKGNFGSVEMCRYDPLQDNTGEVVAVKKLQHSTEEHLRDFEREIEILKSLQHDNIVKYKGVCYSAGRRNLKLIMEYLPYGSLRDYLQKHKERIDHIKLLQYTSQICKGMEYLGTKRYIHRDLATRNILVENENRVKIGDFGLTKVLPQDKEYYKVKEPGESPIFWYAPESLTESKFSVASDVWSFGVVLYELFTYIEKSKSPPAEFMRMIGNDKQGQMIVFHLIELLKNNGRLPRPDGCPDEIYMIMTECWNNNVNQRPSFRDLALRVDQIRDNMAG

`O=C([C@@H]1CC1(F)F)N1[C@H]2CS[C@@H]1CN(c1ccnc(Nc3cnn(CCO)c3)n1)C2` [Example 2] was tested. Which IC50 (JAK3) did it give?
Its IC50 is 2270 nM.

What about the IC50 (Ba/F3-TEL-JAK3 cells) of the same molecule?
Its IC50 is 8640 nM.

And the IC50 (TYK2)?
Its IC50 is 1.7 nM.

What about the IC50 (JAK1) of the same molecule?
The IC50 was 10 nM.

And the IC50 (Ba/F3-TEL-TYK2 cells)?
Its IC50 is 192 nM.

And the IC50 (Ba/F3-TEL-JAK1 cells)?
The IC50 was 314 nM.

What about the IC50 (JAK2) of the same molecule?
The IC50 was 1.4 nM.

And the IC50 (Ba/F3-TEL-JAK2 cells)?
The IC50 was 173 nM.

Which results are given for `Cn1cc(Nc2nccc(N3CC4CSC(C3)N4C(=O)[C@@H]3CC3(F)F)n2)cn1` (stereo partly shown) [Example 1]?
IC50 (JAK3): 3470 nM; IC50 (Ba/F3-TEL-JAK3 cells): 3690 nM; IC50 (TYK2): 4.2 nM; IC50 (JAK1): 32 nM; IC50 (Ba/F3-TEL-TYK2 cells): 111 nM; IC50 (Ba/F3-TEL-JAK1 cells): 31 nM; IC50 (JAK2): 27 nM; IC50 (Ba/F3-TEL-JAK2 cells): 87 nM

`O=C([C@@H]1CC1(F)F)N1[C@H]2CS[C@@H]1CN(c1ccnc(Nc3cnn(C4(CO)CC4)c3)n1)C2` [Example 3] was tested. Which IC50 (Ba/F3-TEL-JAK3 cells) did it give?
The IC50 was greater than 10000 nM.

What about the IC50 (TYK2) of the same molecule?
Its IC50 is 2.9 nM.

And the IC50 (JAK1)?
The IC50 was 107 nM.

And the IC50 (Ba/F3-TEL-TYK2 cells)?
Its IC50 is 556 nM.

And the IC50 (Ba/F3-TEL-JAK1 cells)?
The IC50 was 56 nM.

And the IC50 (Ba/F3-TEL-JAK2 cells)?
The IC50 was 427 nM.

From patent publication US20230099739A1, “JAK KINASE INHIBITOR AND PREPARATION AND APPLICATION THEREOF” (MINGHUI PHARMACEUTICAL (SHANGHAI) LIMITED, priority 2020, published 2023)
